# “And” between values parts separate entries of the source, which are not always exact repeats. Equal values may be shown once.
# Key:
# leucémie L 1210 = assay: In vivo antitumour activity, L 1210 leukemia test; set-up: species or system souris hybrides CDF₁; details: L 1210, CDF₁ mice, 20 mg/kg i.p. J1-J5; for Jour médian de survie / T/C %: 20 mg/kg
# Excerpt: (§1) L'activité antitumorale a été testée in vivo sur différentes tumeurs selon le protocole général suivant:
# (§2) Toutes les souris mâles ou femelles sont inoculées par voie intrapéritonéale au jour Jo avec une quantité déterminée de cellules tumorales viables, variable selon la tumeur.
# (§3) Elles sont ensuite réparties en différents lots. Chaque lot correspondant aux animaux traités par le produit à tester à une dose déterminée est composé de 10 souris. Dans ce cas, le produit à tester est dissous dans l'eau distillée et il est administré, pendant n jours (J₁-Jn) variables selon le protocole choisi, par voie intrapéritonéale à raison de 0,1 ml par 10 g de poids des souris traitées, les doses du produit administré étant précisées dans les tableaux ci-dessous.
# (§4) Le lot "contrôle négatif", correspondant aux animaux qui ne sont pas traités par un produit, comprend 2 √N animaux, N étant égal au nombre total de souris traitées par un produit.
# (§5) Enfin, tous les essais sont conduits parallèlement à l'étude d'un lot appelé "contrôle positif" de 10 animaux qui est traité par une molécule active, variable selon le protocole choisi, dans les mêmes conditions que les lots traités par le produit à tester, afin de valider l'essai.
# (§6) L'activité antitumorale est évaluée en considé-rant l'augmentation du temps de survie des animaux traités par rapport à celui des animaux du lot "contrôle négatif" selon la formule : [formula]
# (§7) Un composé est considéré comme étant actif lorsque la valeur du rapport T/C est égale ou supérieure à 125 % selon le protocole retenu. Il est toxique lorsque cette valeur est égale ou inférieure à 85 %. Le produit est également considéré comme toxique lorsque la variation pondérale, exprimée en grammes et calculée par la formule : Poids moyen du lot mesuré au jour 5 -poids moyen du même lot au jour 1 est égale ou inférieure à - 4 g.
# b) Test de la leucémie L 1210 (GERAN et al., Cancer Chemother, 1972, 2, 07-57).
# Les essais sont effectués avec des souris hybrides CDF₁ inoculées avec 10⁵ cellules leucémiques de la lignée L 1210. Le composé à tester est administré pendant 5 jours (J₁-J₅).Le contrôle positif du test est le 5-fluorouracile administré dans les mêmes conditions. Le nombre d'animaux survivants est évalué au jour J 30. Un composé est considéré comme étant actif lorsque le rapport T/C est supérieur ou égal à 125 %.
# leucémie P 388 = assay: animal or person; format: in vivo, souris hybrides CDF 1; details: P 388, CDF 1 mice, 20 mg/kg i.p. J1-J5; survivors at J 40
# Excerpt: as §1, §2, §3, §4, §5, §6, §7
# a) Test de la leucémie P 388 (GERAN et al., Cancer Chemother, 1972, 2, 07-57).
# Les essais sont effectués avec des souris hybrides CDF 1 inoculées par voie intrapéritonéale avec 10⁶ cellules leucémiques de la lignée P 388. Le composé à tester est administré pendant 5 jours (J1-J5). Le contrôle positif du test est le 5-fluorouracile qui est administré dans les mêmes conditions. Le nombre d'animaux survivants est évalué au jour J 40. Un composé est considéré comme étant actif lorsque le rapport T/C est supérieur à 127 %.
# mélanome B 16 = assay: In vivo antitumour activity, B 16 melanoma test; set-up: species or system souris hybrides BDF₁; details: B 16 melanoma, BDF₁ mice, 1 mg/kg i.p. J1-J9
# Excerpt: as §1, §2, §3, §4, §5, §6
# Le produit est également considéré comme toxique lorsque la variation pondérale, exprimée en grammes et calculée par la formule : Poids moyen du lot mesuré au jour 5 -poids moyen du même lot au jour 1 est égale ou inférieure à - 4 g.
# Les essais sont effectués avec des souris hybrides BDF₁ inoculées avec 0,5 ml d'un homogénat de mélanome B 16 réalisé à partir de 1 g de tumeur dans 10 ml de sérum physiologique. Le composé à tester est administré pendant 9 jours (J₁-J₉).Le contrôle positif du test est le Cis-Platine administré dans les mêmes conditions. Le nombre d'animaux survivants est évalué au jour J 60.
# [1] = tested on: lignée tumorale leucémie L 1210; assay: In vitro cytotoxic activity on L 1210 leukemia cell culture (inhibition of cell proliferation); format: cell-based; details: Mus musculus, L1210; L 1210 culture in exponential growth, 37°C, after 48 hours of contact; read-out: ID 50 (the source's name)
# Description: 1) In vitro : (PAOLETTI et al., Chem. Biol. Interaction, 1979, 25, 45-58).
# L'activité cytotoxique des composés de l'invention a été évaluée par des essais in vitro. Ces essais consistent à ajouter des concentrations croissantes du composé à tester à une culture cellulaire de la lignée tumorale leucémie L 1210 en phase exponentielle de croissance. Les cellules sont incubées à 37°C dans une étuve à CO₂ et comptées toutes les 24 heures. Le calcul de l'ID₅₀ (concentration du produit exprimée en micromole 1⁻¹ qui inhibe la prolifération cellulaire à 50 p. 100) est effectuée après 48 heures de contact. Ainsi déterminées les ID₅₀ des composés de l'invention sont rassemblées dans le tableau ci-après.
smiles,measurement,setting,value
"O=c1[nH]cc(F)c(=O)[nH]1 [5 - Fluoro-uracile, 5-fluorouracile, reference compound]",Jour médian de survie,leucémie L 1210,"15,7 and 14,5"
same,T/C %,leucémie L 1210,191% and 183%
same,Jour médian de survie,leucémie L 1210; listed as 5 Fluoro-uracile,"15,5"
same,T/C %,leucémie L 1210; listed as 5 Fluoro-uracile,174%
same,Nombre de survivants,leucémie L 1210; survivors at J 30,0
same,Nombre de survivants,leucémie P 388,0
"[NH2][Pt]([NH2])([Cl])[Cl] [Cis-Platine, reference compound]",Jour médian de survie,mélanome B 16; 1 mg/kg,39 and 37
same,T/C %,mélanome B 16; 1 mg/kg,140% and 142% and 157%
same,Nombre de survivants,mélanome B 16; survivors at J 60,0
"COc1ccc2c(c1)c1c(NCCCN(C)C)nc3ccccc3c1n2C [Dérivé N°2, (diméthylamino-3 propylamino)-6 méthoxy-8 méthyl-11 11-H indolo[3,2-c]quinoléine]",IC50,[1],400 nM
"COc1ccc2[nH]c3c4ccccc4nc(NCCCN(C)C)c3c2c1 [Dérivé N°6, (diméthylamino-3 propylamino)-6 méthoxy-8 11-H indolo [3,2-c]quinoléine]",IC50,[1],800 nM
"CCN(CC)CCNc1nc2ccccc2c2[nH]c3ccc(OC)cc3c12 [Dérivé N°7, (diéthylamino-2 éthylamino)-6 méthoxy-8 11-H indolo[3,2-c]quinoléine]",IC50,[1],2100 nM
"COc1ccc2[nH]c3c4ccccc4nc(NCCCN4CCOCC4)c3c2c1 [Dérivé N°8, méthoxy-8 (morpholino-3 propylamino)-6 11-H indolo[3,2-c]quinoléine]",IC50,[1],610 nM
"COc1ccc2[nH]c3c4ccccc4nc(NCCCN4CCCCC4)c3c2c1 [Dérivé N°9, méthoxy-8 (pipéridino-3 propylamino)-6 11-H indolo [3,2-c]quinoléine]",IC50,[1],640 nM
"CCNCCCNc1nc2ccccc2c2[nH]c3ccc(OC)cc3c12 [Dérivé N°10, (éthylamino-3 propylamino)-6 méthoxy-8 11-H indolo [3,2-c]quinoléine]",IC50,[1],580 nM
"CCN(CC)CCNc1nc2ccccc2c2[nH]c3ccc(O)cc3c12 [Dérivé N°13, (diéthylamino-2 éthylamino)-6 hydroxy-8 11-H indolo[3,2-c]quinoléine]",IC50,[1],2600 nM
